From patent US12404241B2 (Celgene Corporation, priority 2018, dated 2025)
Structures can show the parent of a compound that is named as a salt. Where two headings read alike, the source gives them in different places.

Target: T1, AR (Homo sapiens, UniProt P10275)
T1 construct: endogenous in cells; host or cells: VCaP cells
T1 sequence (P10275 1-920): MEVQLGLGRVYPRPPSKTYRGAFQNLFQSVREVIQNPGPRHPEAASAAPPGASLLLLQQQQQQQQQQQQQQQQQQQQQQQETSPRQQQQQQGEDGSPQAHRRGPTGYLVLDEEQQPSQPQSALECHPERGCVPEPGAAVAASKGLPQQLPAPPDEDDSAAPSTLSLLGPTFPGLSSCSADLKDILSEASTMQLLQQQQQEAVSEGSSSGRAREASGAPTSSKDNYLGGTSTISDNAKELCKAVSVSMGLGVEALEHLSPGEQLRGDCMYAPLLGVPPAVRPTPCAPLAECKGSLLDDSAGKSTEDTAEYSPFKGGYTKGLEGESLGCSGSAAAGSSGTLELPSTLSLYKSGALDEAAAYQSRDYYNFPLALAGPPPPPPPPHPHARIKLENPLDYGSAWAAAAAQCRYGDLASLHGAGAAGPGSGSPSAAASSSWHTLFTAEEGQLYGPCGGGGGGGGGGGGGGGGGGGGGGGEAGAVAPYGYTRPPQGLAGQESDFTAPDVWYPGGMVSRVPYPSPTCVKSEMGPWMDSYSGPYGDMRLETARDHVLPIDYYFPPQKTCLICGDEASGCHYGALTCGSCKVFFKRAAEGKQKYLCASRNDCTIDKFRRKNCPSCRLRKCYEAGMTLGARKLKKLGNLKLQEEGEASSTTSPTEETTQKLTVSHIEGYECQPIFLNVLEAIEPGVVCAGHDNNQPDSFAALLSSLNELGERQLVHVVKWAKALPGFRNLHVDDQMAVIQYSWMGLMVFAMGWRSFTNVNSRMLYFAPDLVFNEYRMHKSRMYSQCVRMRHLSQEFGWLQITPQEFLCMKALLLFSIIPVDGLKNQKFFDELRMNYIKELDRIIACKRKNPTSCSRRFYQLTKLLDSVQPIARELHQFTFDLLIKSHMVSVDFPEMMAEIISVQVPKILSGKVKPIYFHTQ
Assay: VCAP AR Degradation Assay
Type: cell-based
Conditions: for Y (AR degradation efficiency, % of DMSO control): class symbols *; for DC50: class symbols A-C
Procedure, shortened: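 Compounds were plated as 10-point 1:3 series reaching 5 μM final, then VCaP cells were seeded onto them and incubated 24 h at 37 °C. Cells were lysed cold, and total AR was measured by sandwich ELISA relative to 0.1% DMSO wells.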

Compound | Y (AR degradation efficiency, % of DMSO control) | DC50 (read-out: DC50) | DC50
CCc1cc(N2C(=S)N(c3cnc(C#N)c(C(F)(F)F)c3)C(=O)C23CCC3)ccc1OCCN1C[C@@H](C)N(CC(=O)Nc2cc(NC3CCC(=O)NC3=O)ccc2F)[C@@H](C)C1 (stereo partly drawn) [Example 190, 2-((2S,6R)-4-(2-(4-(7-(6-cyano-5-(trifluoromethyl)pyridin-3-yl)-8-oxo-6-thioxo-5,7-diazaspiro[3.4]octan-5-yl)-2-ethylphenoxy)ethyl)-2,6-dimethylpiperazin-1-yl)-N-(5-(2,6-dioxopiperidin-3-ylamino)-2-fluorophenyl)acetamide] | * (0<Y<=25%) | < 100 nM | –
N#Cc1ccc(N2C(=O)C3(CCC3)N(c3ccc(OCCN4CCN(CC(=O)Nc5cccc(NC6CCC(=O)NC6=O)c5)CC4)c(F)c3)C2=S)cc1C(F)(F)F (stereo not drawn) [Example 8, hydrochloride] | ** (25%<Y<=35%) | < 100 nM | –
C[C@@H]1CN(CCOc2ccc(N3C(=S)N(c4ccc(C#N)c(Cl)c4)C(=O)C3(C)C)cc2C2CC2)C[C@H](C)N1CC(=O)Nc1cc(NC2CCC(=O)NC2=O)ccc1F (stereo partly drawn) [Example 221, 2-((2S,6R)-4-(2-(4-(3-(3-chloro-4-cyanophenyl)-5,5-dimethyl-4-oxo-2-thioxoimidazolidin-1-yl)-2-cyclopropylphenoxy)ethyl)-2,6-dimethylpiperazin-1-yl)-N-(5-(2,6-dioxopiperidin-3-ylamino)-2-fluorophenyl)acetamide] | ** (25%<Y<=35%) | < 100 nM | –
CC1(C)C(=O)N(c2cnc(C#N)c(C(F)(F)F)c2)C(=S)N1c1ccc(OCCN2CCN(CC(=O)Nc3cc(Cl)cc(NC4CCC(=O)NC4=O)c3)CC2)c(CCF)c1 (stereo not drawn) [Example 72, N-(3-chloro-5-(2,6-dioxopiperidin-3-ylamino)phenyl)-2-(4-(2-(4-(3-(6-cyano-5-(trifluoromethyl)pyridin-3-yl)-5,5-dimethyl-4-oxo-2-thioxoimidazolidin-1-yl)-2-(2-fluoroethyl)phenoxy)ethyl)piperazin-1-yl)acetamide] | * (0<Y<=25%) | < 100 nM | –
CCc1cc(N2C(=S)N(c3ccc(C#N)c(C(F)(F)F)c3)C(=O)C2(C)C)ccc1OCCN1CCN(CC(=O)Nc2cccc(N[C@H]3CCC(=O)NC3=O)c2)[C@H](C)C1 [Example 111, 2-((R)-4-(2-(4-(3-(4-cyano-3-(trifluoromethyl)phenyl)-5,5-dimethyl-4-oxo-2-thioxoimidazolidin-1-yl)-2-ethylphenoxy)ethyl)-2-methylpiperazin-1-yl)-N-(3-((S)-2,6-dioxopiperidin-3-ylamino)phenyl)acetamide] | * (0<Y<=25%) | < 100 nM | –
CCc1cc(N2C(=S)N(c3ccc(C#N)c(C(F)(F)F)c3)C(=O)C2(C)C)ccc1OCCN1C[C@@H](C)N(CC(=O)Nc2cccc(NC3CCC(=O)NC3=O)c2)[C@H](C)C1 (stereo partly drawn) [Example 129, 2-((2R,6R)-4-(2-(4-(3-(4-cyano-3-(trifluoromethyl)phenyl)-5,5-dimethyl-4-oxo-2-thioxoimidazolidin-1-yl)-2-ethylphenoxy)ethyl)-2,6-dimethylpiperazin-1-yl)-N-(3-(2,6-dioxopiperidin-3-ylamino)phenyl)acetamide] | * (0<Y<=25%) | < 100 nM | –
C[C@@H]1CN(CCOc2ccc(N3C(=S)N(c4ccc(C#N)c(C(F)(F)F)c4)C(=O)C3(C)C)cc2C(C)(F)F)CCN1CC(=O)Nc1cc(Cl)cc(NC2CCC(=O)NC2=O)c1 (stereo partly drawn) [Example 148, N-(3-chloro-5-(2,6-dioxopiperidin-3-ylamino)phenyl)-2-((R)-4-(2-(4-(3-(4-cyano-3-(trifluoromethyl)phenyl)-5,5-dimethyl-4-oxo-2-thioxoimidazolidin-1-yl)-2-(1,1-difluoroethyl)phenoxy)ethyl)-2-methylpiperazin-1-yl)acetamide] | * (0<Y<=25%) | < 100 nM | –
CC1(C)C(=O)N(c2cnc(C#N)c(C(F)(F)F)c2)C(=S)N1c1ccc(OCCN2CCN(CC(=O)Nc3cc(Cl)cc(NC4CCC(=O)NC4=O)c3)CC2)c(C2CC2)c1 (stereo not drawn) [Example 84, N-(3-chloro-5-(2,6-dioxopiperidin-3-ylamino)phenyl)-2-(4-(2-(4-(3-(6-cyano-5-(trifluoromethyl)pyridin-3-yl)-5,5-dimethyl-4-oxo-2-thioxoimidazolidin-1-yl)-2-cyclopropylphenoxy)ethyl)piperazin-1-yl)acetamide] | * (0<Y<=25%) | < 100 nM | –
CCc1cc(N2C(=S)N(c3ccc(C#N)c(C(F)(F)F)c3)C(=O)C2(C)C)cnc1OCCN1C[C@@H](C)N(CC(=O)Nc2cccc(NC3CCC(=O)NC3=O)c2)[C@@H](C)C1 (stereo partly drawn) [Example 216, 2-((2R,6S)-4-(2-(5-(3-(4-cyano-3-(trifluoromethyl)phenyl)-5,5-dimethyl-4-oxo-2-thioxoimidazolidin-1-yl)-3-ethylpyridin-2-yloxy)ethyl)-2,6-dimethylpiperazin-1-yl)-N-(3-(2,6-dioxopiperidin-3-ylamino)phenyl)acetamide] | ** (25%<Y<=35%) | < 100 nM | –
CC[C@@H]1CN(CCOc2ccc(N3C(=S)N(c4ccc(C#N)c(C(F)(F)F)c4)C(=O)C3(C)C)cc2C2CC2)CCN1CC(=O)Nc1cccc(NC2CCC(=O)NC2=O)c1 (stereo partly drawn) [Example 261, 2-((R)-4-(2-(4-(3-(4-cyano-3-(trifluoromethyl)phenyl)-5,5-dimethyl-4-oxo-2-thioxoimidazolidin-1-yl)-2-cyclopropylphenoxy)ethyl)-2-ethylpiperazin-1-yl)-N-(3-(2,6-dioxopiperidin-3-ylamino)phenyl)acetamide] | ** (25%<Y<=35%) | 100 to 500 nM | –
CCc1cc(N2C(=S)N(c3ccc(C#N)c(C(F)(F)F)c3)C(=O)C2(C)C)ccc1OCCN1CCN([C@H](C)C(=O)Nc2cccc(NC3CCC(=O)NC3=O)c2)[C@@H](C)C1 (stereo partly drawn) [Example 274, (2R)-2-((S)-4-(2-(4-(3-(4-cyano-3-(trifluoromethyl)phenyl)-5,5-dimethyl-4-oxo-2-thioxoimidazolidin-1-yl)-2-ethylphenoxy)ethyl)-2-methylpiperazin-1-yl)-N-(3-(2,6-dioxopiperidin-3-ylamino)phenyl)propanamide] | * (0<Y<=25%) | < 100 nM | –
CCc1cc(N2C(=S)N(c3cnc(C#N)c(C(F)(F)F)c3)C(=O)C2(C)C)ccc1OCCN1CCN(C2(C(=O)Nc3cc(Cl)cc(NC4CCC(=O)NC4=O)c3)CC2)CC1 (stereo not drawn) [Example 165, N-(3-chloro-5-(2,6-dioxopiperidin-3-ylamino)phenyl)-1-(4-(2-(4-(3-(6-cyano-5-(trifluoromethyl)pyridin-3-yl)-5,5-dimethyl-4-oxo-2-thioxoimidazolidin-1-yl)-2-ethylphenoxy)ethyl)piperazin-1-yl)cyclopropanecarboxamide] | * (0<Y<=25%) | < 100 nM | –
CC1(C)C(=O)N(c2cnc(C#N)c(C(F)(F)F)c2)C(=S)N1c1ccc(OCCN2CCN(CC(=O)Nc3cccc(NC4CCC(=O)NC4=O)c3)CC2)c(C2CCC2)c1 (stereo not drawn) [Example 36, trifluoroacetate] | * (0<Y<=25%) | < 100 nM | –
CCc1cc(N2C(=S)N(c3cnc(C#N)c(C(F)(F)F)c3)C(=O)C23CCC3)ccc1OCCN1CCN(CC(=O)Nc2cccc(NC3CCC(=O)NC3=O)c2)C(C)(C)C1 (stereo not drawn) [Example 134, 2-(4-(2-(4-(7-(6-cyano-5-(trifluoromethyl)pyridin-3-yl)-8-oxo-6-thioxo-5,7-diazaspiro[3.4]octan-5-yl)-2-ethylphenoxy)ethyl)-2,2-dimethylpiperazin-1-yl)-N-(3-(2,6-dioxopiperidin-3-ylamino)phenyl)acetamide] | * (0<Y<=25%) | < 100 nM | –
CCc1cc(N2C(=S)N(c3cnc(C#N)c(C(F)(F)F)c3)C(=O)C23CCC3)ccc1OCCN1CC2CCC(C1)N2CC(=O)Nc1cccc(NC2CCC(=O)NC2=O)c1 (stereo not drawn) [Example 171, 2-(3-(2-(4-(7-(6-cyano-5-(trifluoromethyl)pyridin-3-yl)-8-oxo-6-thioxo-5,7-diazaspiro[3.4]octan-5-yl)-2-ethylphenoxy)ethyl)-3,8-diazabicyclo[3.2.1]octan-8-yl)-N-(3-(2,6-dioxopiperidin-3-ylamino)phenyl)acetamide] | * (0<Y<=25%) | – | < 100 nM
